Patent US9018206B2, “Carboxamide compounds and their use as calpain inhibitors” (AbbVie Deutschland GmbH & Co. KG, priority 2009, dated 2015)

Experiments:
Type in all cases: biochemical
[1] = target: T1, calpain-I isolated from human erythrocytes (Homo sapiens, UniProt P07384); assay: Calpain I enzyme inhibition in vitro (kinetic fluorescence assay); details: apparent Ki from IC50 (Cheng-Prussoff); 20 nM calpain-I, 100 μM Suc-Leu-Tyr-AMC, pH 7.3, room temperature
T1 construct: calpain-I—isolated from human erythrocytes; purchased Calbiochem 208713; host or cells: human erythrocytes (tissue-derived)
T1 sequence (P07384 1-714): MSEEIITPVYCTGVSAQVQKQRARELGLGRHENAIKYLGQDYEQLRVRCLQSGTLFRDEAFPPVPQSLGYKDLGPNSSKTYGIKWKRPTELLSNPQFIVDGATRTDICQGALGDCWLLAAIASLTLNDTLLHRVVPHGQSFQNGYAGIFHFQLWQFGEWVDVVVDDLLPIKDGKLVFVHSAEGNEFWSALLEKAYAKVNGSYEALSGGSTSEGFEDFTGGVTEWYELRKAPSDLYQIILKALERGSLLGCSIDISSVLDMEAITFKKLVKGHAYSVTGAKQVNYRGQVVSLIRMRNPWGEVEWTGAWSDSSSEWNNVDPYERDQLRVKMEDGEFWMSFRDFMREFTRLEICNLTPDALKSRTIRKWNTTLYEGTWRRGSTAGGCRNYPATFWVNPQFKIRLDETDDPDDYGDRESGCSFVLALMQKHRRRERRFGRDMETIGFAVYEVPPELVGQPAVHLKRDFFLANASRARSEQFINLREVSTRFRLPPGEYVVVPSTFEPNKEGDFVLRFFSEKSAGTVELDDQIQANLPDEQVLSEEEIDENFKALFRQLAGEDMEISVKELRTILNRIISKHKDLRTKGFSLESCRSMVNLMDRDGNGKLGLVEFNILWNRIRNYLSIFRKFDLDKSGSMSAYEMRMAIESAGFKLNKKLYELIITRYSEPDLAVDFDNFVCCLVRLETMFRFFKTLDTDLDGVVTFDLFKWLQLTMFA
T1 sequence (P04632 1-268 partner): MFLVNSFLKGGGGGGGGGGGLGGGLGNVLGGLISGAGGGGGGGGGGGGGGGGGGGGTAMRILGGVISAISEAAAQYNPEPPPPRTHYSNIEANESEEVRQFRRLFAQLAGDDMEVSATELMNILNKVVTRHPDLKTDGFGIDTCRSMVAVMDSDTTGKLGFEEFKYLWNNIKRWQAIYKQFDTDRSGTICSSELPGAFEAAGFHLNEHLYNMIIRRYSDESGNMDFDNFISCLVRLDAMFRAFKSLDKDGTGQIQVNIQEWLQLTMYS
Description: (§1) Testing for blockade of the corresponding enzymic activities was carried out by means of kinetic fluorescence assays (excitation 390 nm, emission 460 nm).
(§2) Apparent Ki values were calculated from the experimentally determined IC50 values by the Cheng-Prussoff relation assuming a reversible competitive enzyme inhibition. The Km values of the substrates used under the assay conditions indicated above were: 90 μM (Z-Phe-Arg-AMC, cathepsin B), 10 μM (Z-Gly-Pro-Arg-AMC, cathepsin K), 2 μM (Z-Phe-Arg-AMC, cathepsin L), and 30 μM (Z-Val-Val-Arg-AMC, cathepsin S).
(§3) The indicated Ki values are averages of the inhibition constants calculated on the basis of 2 to 4 independent dose-effect plots.
(§4) • 20 nM calpain-I—isolated from human erythrocytes (Calbiochem #208713), 100 μM Suc-Leu-Tyr-AMC (Bachem #I-1355) as substrate in buffer with 62 mM imidazole, 0.3 mM CaCl2, 0.10% CHAPS, 0.05% BSA, 1 mM DTT at pH 7.3 and room temperature. 1. Cathepsin B: • 0.25 nM cathepsin B—isolated from human liver (Calbiochem #219362), 100 μM Z-Phe-Arg-AMC (Bachem #I-1160) as substrate 50 mM MES, 2 mM EDTA, 0.05% Brij 35, 2.5 mM L-cysteine, pH 6.0, room temperature. 3. Cathepsin K: • 3 nM cathepsin K activated from recombinant human procathepsin K from E. coli (Calbiochem #342001), 10 μM Z-Gly-Pro-Arg-AMC (Biomol #P-142) as substrate in 50 mM MES, 2 mM EDTA, 0.05% Brij 35, 2.5 mM L-cysteine, pH 6.0, room temperature. 4. Cathepsin L: • 1 nM cathepsin L—isolated from human liver (Calbiochem #219402), 2 μM Z-Phe-Arg-AMC (Bachem #I-1160) as substrate in 50 mM MES, 2 mM EDTA, 0.05% Brij 35, 2.5 mM L-cysteine, pH 6.0, room temperature. 5. Cathepsin S: • 0.5 nM recombinant human cathepsin S from E. coli (Calbiochem #219343), 20 μM Z-Val-Val-Arg-AMC (Bachem #I-1540) as substrate in 50 mM MES, 2 mM EDTA, 0.05% Brij 35, 2.5 mM L-cysteine, pH 6.0, room temperature.

[2] = target: T2, cathepsin B isolated from human liver (Homo sapiens, UniProt P07858); assay: Cathepsin B enzyme inhibition in vitro (kinetic fluorescence assay); details: Ki(cathepsin B)/Ki(calpain) ratio
T2 construct: cathepsin B—isolated from human liver; purchased Calbiochem 219362; host or cells: human liver (tissue-derived)
Description: as §1, §2, §3, §4

[3] = target: T3, cathepsin L isolated from human liver (Homo sapiens, UniProt P07711); assay: Cathepsin L enzyme inhibition in vitro (kinetic fluorescence assay); details: Ki(cathepsin L)/Ki(calpain) ratio
T3 construct: cathepsin L—isolated from human liver; purchased Calbiochem 219402; host or cells: human liver (tissue-derived)
Description: as §1, §2, §3, §4

[4] = target: T4, recombinant human cathepsin S (Homo sapiens, UniProt P25774); assay: Cathepsin S enzyme inhibition in vitro (kinetic fluorescence assay); details: Ki(cathepsin S)/Ki(calpain) ratio
T4 construct: purchased Calbiochem 219343; host or cells: E. coli
Description: as §1, §2, §3, §4

[5] = target: T5, cathepsin K activated from recombinant human procathepsin K (Homo sapiens, UniProt P43235); assay: Cathepsin K enzyme inhibition in vitro (kinetic fluorescence assay); details: Ki(cathepsin K)/Ki(calpain) ratio
T5 construct: purchased Calbiochem 342001; host or cells: E. coli
T5 sequence (P43235 115-329): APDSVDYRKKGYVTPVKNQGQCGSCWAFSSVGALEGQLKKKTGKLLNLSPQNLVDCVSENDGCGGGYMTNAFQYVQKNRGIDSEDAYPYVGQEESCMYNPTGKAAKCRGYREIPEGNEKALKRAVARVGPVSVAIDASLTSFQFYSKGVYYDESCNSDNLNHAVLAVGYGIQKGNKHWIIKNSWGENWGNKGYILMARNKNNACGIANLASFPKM
Description: as §1, §2, §3, §4

T4 sequence (P25774 115-331): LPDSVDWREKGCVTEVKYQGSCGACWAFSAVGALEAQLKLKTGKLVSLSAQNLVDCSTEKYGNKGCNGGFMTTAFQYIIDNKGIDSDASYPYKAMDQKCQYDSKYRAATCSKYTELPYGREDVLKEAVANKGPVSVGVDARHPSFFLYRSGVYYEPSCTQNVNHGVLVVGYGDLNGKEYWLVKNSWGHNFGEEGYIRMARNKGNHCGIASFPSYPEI
T3 sequence (P07711 114-333): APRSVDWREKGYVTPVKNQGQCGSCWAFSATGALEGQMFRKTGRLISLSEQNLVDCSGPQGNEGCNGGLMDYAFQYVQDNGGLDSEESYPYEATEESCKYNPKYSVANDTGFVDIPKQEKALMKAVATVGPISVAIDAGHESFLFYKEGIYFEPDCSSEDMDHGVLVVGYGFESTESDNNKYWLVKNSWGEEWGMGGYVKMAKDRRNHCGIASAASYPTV

Ki [1] [nM]	Sel cat. B [2]	Sel cat. L [3]	Sel cat. S [4]	Structure (SMILES)	Sel cat. K [5]
50 to 100	++ (10<Ki(cathepsin B)/Ki(calpain)≦30)	++ (10<Ki(cathepsin B)/Ki(calpain)≦30)	++ (30<Ki(cathepsin B)/Ki(calpain)≦100)	NC(=O)C(=O)C(Cc1ccccc1)NC(=O)[C@H]1CCCC(=O)N1Cc1ccccc1 (stereo partly drawn) [Example 14, (2R)—N-(4-Amino-3,4-dioxo-1-phenylbutan-2-yl)-1-benzyl-6-oxopiperidine-2-carboxamide]	
< 50	+ (5<Ki(cathepsin B)/Ki(calpain)≦10)		++ (30<Ki(cathepsin B)/Ki(calpain)≦100)	COc1cccc(CN2C(=O)CC[C@@H]2C(=O)NC(Cc2ccccc2)C(=O)C(N)=O)c1 (stereo partly drawn) [Example 6, (2R)—N-(4-Amino-3,4-dioxo-1-phenylbutan-2-yl)-1-(3-methoxybenzyl)-5-oxopyrrolidine-2-carboxamide]	+++ (Ki(cathepsin K)/Ki(calpain) ratio of >30)
100 to 600		+ (5<Ki(cathepsin L)/Ki(calpain)≦10)		NC(=O)C(=O)C(Cc1ccccc1)NC(=O)[C@@H]1CCC(=O)N1Cc1ccccc1 (stereo partly drawn) [Example 2, (2S)—N-(4-Amino-3,4-dioxo-1-phenylbutan-2-yl)-1-benzyl-5-oxopyrrolidine-2-carboxamide]	++ (10<Ki(cathepsin B)/Ki(calpain)≦30)
100 to 600	+ (5<Ki(cathepsin B)/Ki(calpain)≦10)		++ (30<Ki(cathepsin B)/Ki(calpain)≦100)	O=C(NC1CC1)C(=O)C(Cc1ccccc1)NC(=O)[C@H]1CCC(=O)N1Cc1ccc(C(F)(F)F)cc1 (mixture of isomers) [Example 58, (2R)—N-(4-(Cyclopropylamino)-3,4-dioxo-1-phenylbutan-2-yl)-5-oxo-1-(4-(trifluoromethyl)benzyl)pyrrolidine-2-carboxamide]	+ (5<Ki(cathepsin K)/Ki(calpain)≦10)
< 50	++ (10<Ki(cathepsin B)/Ki(calpain)≦30)	++ (10<Ki(cathepsin B)/Ki(calpain)≦30)		C[C@H]1C[C@H](C(=O)NC(Cc2ccccc2)C(=O)C(N)=O)N(Cc2ccccc2)C1=O (stereo partly drawn) [Example 19, (2R,4S)—N-(4-Amino-3,4-dioxo-1-phenylbutan-2-yl)-1-benzyl-4-methyl-5-oxopyrrolidine-2-carboxamide]	
50 to 100	++ (10<Ki(cathepsin B)/Ki(calpain)≦30)		++ (30<Ki(cathepsin B)/Ki(calpain)≦100)	O=C(NC1CCCCC1)C(=O)C(Cc1ccccc1)NC(=O)[C@H]1CCC(=O)N1Cc1ccccc1 (mixture of isomers) [Example 56, (2R)-1-Benzyl-N-(4-(cyclohexylamino)-3,4-dioxo-1-phenylbutan-2-yl)-5-oxopyrrolidine-2-carboxamide]	+ (5<Ki(cathepsin K)/Ki(calpain)≦10)
< 50	++ (10<Ki(cathepsin B)/Ki(calpain)≦30)		++ (30<Ki(cathepsin B)/Ki(calpain)≦100)	NC(=O)C(=O)C(Cc1ccccc1)NC(=O)[C@H]1CCC(=O)N1Cc1cccc2ccccc12 (stereo partly drawn) [Example 11, (2R)—N-(4-Amino-3,4-dioxo-1-phenylbutan-2-yl)-1-(naphthalen-1-ylmethyl)-5-oxopyrrolidine-2-carboxamide]	+++ (Ki(cathepsin K)/Ki(calpain) ratio of >30)

Structure (SMILES)	Ki [1] [nM]	Sel cat. B [2]	Sel cat. L [3]	Sel cat. S [4]	Sel cat. K [5]
NC(=O)C(=O)C(Cc1ccccc1)NC(=O)C1CCS(=O)(=O)N1Cc1ccccc1 (centres unmarked) [Example 10, N-(4-Amino-3,4-dioxo-1-phenylbutan-2-yl)-2-benzylisothiazolidine-3-carboxamide 1,1-dioxide]	< 50	+++ (Ki(cathepsin B)/Ki(calpain) ratio of >30)	++ (10<Ki(cathepsin B)/Ki(calpain)≦30)		
CCNC(=O)C(=O)C(Cc1ccccc1)NC(=O)[C@H]1CCC(=O)N1Cc1c(F)cccc1F (mixture of isomers) [Example 49, (2R)-1-(2,6-Difluorobenzyl)-N-(4-(ethylamino)-3,4-dioxo-1-phenylbutan-2-yl)-5-oxopyrrolidine-2-carboxamide]	100 to 600	+++ (Ki(cathepsin B)/Ki(calpain) ratio of >30)	++ (10<Ki(cathepsin B)/Ki(calpain)≦30)		
O=C(NC1CC1)C(=O)C(Cc1ccccc1)NC(=O)[C@H]1CCC(=O)N1Cc1c(F)cccc1F (mixture of isomers) [Example 48, (2R)—N-(4-(Cyclopropylamino)-3,4-dioxo-1-phenylbutan-2-yl)-1-(2,6-difluorobenzyl)-5-oxopyrrolidine-2-carboxamide]	100 to 600	+++ (Ki(cathepsin B)/Ki(calpain) ratio of >30)	++ (10<Ki(cathepsin B)/Ki(calpain)≦30)		
CCCNC(=O)C(=O)C(Cc1ccccc1)NC(=O)[C@H]1CCC(=O)N1Cc1ccccc1 (mixture of isomers) [Example 26, (2R)-1-Benzyl-N-(3,4-dioxo-1-phenyl-4-(propylamino)butan-2-yl)-5-oxopyrrolidine-2-carboxamide]	100 to 600	+++ (Ki(cathepsin B)/Ki(calpain) ratio of >30)	++ (10<Ki(cathepsin B)/Ki(calpain)≦30)		+++ (Ki(cathepsin K)/Ki(calpain) ratio of >30)
O=C(NNC(=O)c1ccccc1)C(=O)C(Cc1ccccc1)NC(=O)[C@H]1CCC(=O)N1Cc1ccccc1 (mixture of isomers) [Example 57, (2R)—N-(4-(2-Benzoylhydrazinyl)-3,4-dioxo-1-phenylbutan-2-yl)-1-benzyl-5-oxopyrrolidine-2-carboxamide]	50 to 100	+ (5<Ki(cathepsin B)/Ki(calpain)≦10)		+++ (Ki(cathepsin S)/Ki(calpain) ratio of >100)	++ (10<Ki(cathepsin B)/Ki(calpain)≦30)
NC(=O)C(=O)C(Cc1ccccc1)NC(=O)[C@H]1CCC(=O)N1Cc1ccccc1OC(F)(F)F (stereo partly drawn) [Example 9, (2R)—N-(4-Amino-3,4-dioxo-1-phenylbutan-2-yl)-5-oxo-1-[2-(trifluoromethoxy)-benzyl]pyrrolidine-2-carboxamide]	50 to 100		+++ (Ki(cathepsin L)/Ki(calpain) ratio of >30)	+++ (Ki(cathepsin S)/Ki(calpain) ratio of >100)	+++ (Ki(cathepsin K)/Ki(calpain) ratio of >30)
